# Patent US20250195523A1, “ORGANIC MOLECULES FOR TREATING MYELIN PATHOLOGIES” (ICM (INSTITUT DU CERVEAU ET DE LA MOELLE ÉPINIÈRE), priority 2022, published 2025)
# Assays:
# [1] = tested on: neonatal chronic hypoxia model (dorsal SVZ and cortex); assay: Neonatal chronic hypoxia model of preterm birth brain injury, intranasal administration; assay type: in vivo, mice
# Description: Mice aged P1 were placed in a hypoxic rearing chamber maintaining at 9.5-10.5% O2 concentration by displacement with N2. Hypoxia began at the postnatal day 3 (P3) for 8 days until P11. A separate group was maintained in a normal atmosphere (normoxic group). […] Mucus was first permeabilized by the use of type IV hyaluronidase, then 10 μl of drugs (Sigma) was administered 3 times, 1 time a day from P11 to P13 (starting at the end of the hypoxic period, then every 24 hours) in sterile PBS (control). For analysis of proliferation, mice were injected with EdU (Sigma) in order to label cells in an actively cycling state in S-phase, then perfused 1 h later at P13. For analysis of OL maturation, mice were perfused at P19. All perfusions were performed with Ringer, followed by ice cold solution of 4% paraformaldehyde (Thermo Fisher). Mice were sacrificed at P13 or P19 by an intraperitoneal overdose of pentobarbital followed by perfusion with Ringer's lactate solution and 4% paraformaldehyde (PFA; Sigma) dissolved in 0.1M phosphate buffer (PB; pH 7.4). Brains were removed and post-fixed for 24 hours at 4° C. in 4% PFA and sectioned in 50 μm thick coronal serial sections, free floating sections.
# For in vivo-cryosections (50 μm) of chronic hypoxia, antigen retrieval was performed for 20 min in a citrate buffer (ph 6.0) at 80° C., then cooled for 20 min at room temperature and washed in 0.1M PB. The following antibody were used for immunohistochemical procedures: Mouse anti-APC (CC1 IgG2B; 1:100, calbiochem); Mouse anti-Olig2 (1:1500; Millipore); Rabbit anti-Olig2 (1:400; Millipore); Rabbit anti-GSTpi (1:1000, Enzo). Blocking was performed in a TNB buffer (0.1 M PB; 0.05% Casein; 0.25% Bovine Serum Albumin; 0.25% TopBlock) with 0.4% triton-X (TNB-Tx). Sections were incubated overnight at 4° C. with gentle shaking. Following extensive washing in 0.1 M PB with 0.4% triton-X (PB-Tx), sections were incubated with appropriate secondary antibodies conjugated with Alexa Fluor 488 or 555 (1:500; Jackson or Invitrogen) for 2 hrs at room temperature. Sections were washed and counterstained with Dapi (1:5000 from a working solution at 5 mg/ml; Life Technologies; D1306). Revelation of EdU was done using Click-it™, EdU cell proliferation Kit for imaging, Alexa fluor™ 647 dye (Thermo Fisher scientific).
# Chronic hypoxia is a well-established model of very preterm birth, that induces a diffuse perinatal brain lesion by housing the pups at 10% oxygen from P3 to P11 (FIG. 5A). This neonatal hypoxia induces a marginal cell death including neuronal and glial cells along with delay into forebrain development including OL maturation that appear to persist in adulthood. […] We next assessed the impact on OL differentiation by immunodetection of OLs with CC1 antibody and oligodendroglial cells by Olig2.
# [2] = tested on: primary OPCs purified by magnetic cell sorting (MACS) from neonatal cortices; assay: Primary OPC cultures purified by MACS, morphological complexity of OLs; assay type: cell-based, mice; conditions: OPCs treated for two days; compared to vehicle; FIG. 2B
# Description: Brains were collected from PLPGFP and P4 Swiss mice […] and washed 3 times in PBS 1× (Invitrogen) with 1% of penicillin/streptomycin (Sigma). Cortex and corpus callosum were dissected and dissociated using neural tissue dissociation kit (T) (Miltenyi biotec) and with dissociator (gentleMACS Octo Dissociator, Miltenyi Biotec). OPC magnetic cell sorting was performed using anti-PDGFRα-coupled-beads (CD140a-PDGFRα MicroBead Kit, Miltenyi biotec) and MultiMACS Cell24 Separator Plus (Miltenyi biotec). Cells were collected in PBS and amplified for 2 days in a proliferating medium (with growth factors IGF, EGF, FGF, and PDGFα). Then, 40.000 cells were plated in 24 well plates adherent on coverslips, beforehand coated with poly-ornithine (Merck) diluted in 4 volumes of H2O and washed 3 times. Successively, for 2 days of proliferation and differentiation, medium was added with drugs at 250 nM, 500 nM and 750 nM, and their respective vehicles (DMSO, PBS). Cells were fixed in 4% PBS-paraformaldehyde (thermo fisher) for 10 minutes and washed 3 times in PBS-1×.
# For coated-coverslip, blocking was performed in a moist chamber for 30 mn at room temperature (RT) in the blocking buffer (0.05% Triton X-100/10% normal goat serum/PBS). Then, coverslip were incubated for 30 mn with the following primary antibodies at RT. Rat anti-PDGFRα (1:250, BD Biosciences); Mouse anti-CNPase (mlgG1, 1:250; Millipore); Rabbit anti-Btub (1:1000; BABCO); Chicken anti-GFAP (1:500, Avelabs), Mouse anti-MBP (mlgG1, 1:150; Abcam); Rabbit anti-Sox10 (1:1000; Proteintech). Following 3 washing in 0.05% Triton X-100/PBS, coverslips were incubated 30 min at RT in dark with appropriate secondary antibodies conjugated with Alexa Fluor 488, 594 and 647 (1:1000; Molecular Probes or Thermo Fisher) and Dapi (1:5000 from working solution at 5 mg/ml; Life Technologies; D1306). Coverslips were washed 3 times in 0.05% Triton X-100/PBS and mounted with Fluoromount-G (SouthernBiotech).
# To evaluate cell specific contribution of the drugs directly in OL differentiation and maturation, we used primary OPCs purified by magnetic cell sorting (MACS) from neonatal cortices (P4).
smiles,measurement,setting,value
"CCCCOc1ccc(C(=O)CCN2CCCCC2)cc1.Cl [Sm5, Dyclonine hydrochloride]",EdU+ cell density within the subventricular zone (proliferation),"[1]; P13, intranasal P11 to P13, sm5 at 5 μg per g, sm11 at 0.5 μg per g, versus hypoxia, FIG. 6A",no marked additive effects
same,"proportion of Olig2+ cells labeled with EdU (proliferative OPCs, dorsal SVZ)","[1]; P13, intranasal P11 to P13, versus hypoxia, FIG. 6B",significant increase
same,"myelinating OLs (GSTπ+ cells), GSTπ expression","[1]; P19, cortex, intranasal P11 to P13, after hypoxia, FIG. 5D",complete recovery
same,"OL differentiation, ratio of Olig2+ cells expressing CC1","[1]; P19, cortex, intranasal P11 to P13, compared to hypoxic and normoxic groups, FIG. 5C",increased OL differentiation beyond the normoxic and sm11 groups
same,density of oligodendroglial cells (Olig2+ cells) in the cortex,"[1]; P19, intranasal P11 to P13, FIG. 5B",no major effect
same,morphological complexity of OLs (PLP+ cells),[2],strongly increased
